One assay concerns the target T1, PP1B (Homo sapiens, UniProt P62140).
T1 construct: purchased Recation Biology Inc
Briefly: Phosphatase panel, DiFMUP fluorescence assay. It is filed as biochemical.

The next assay has as its target T2, PTPN11/SHP2-FL (Homo sapiens, UniProt Q06124).
T2 sequence (Q06124 2-597 isoform Q06124-1): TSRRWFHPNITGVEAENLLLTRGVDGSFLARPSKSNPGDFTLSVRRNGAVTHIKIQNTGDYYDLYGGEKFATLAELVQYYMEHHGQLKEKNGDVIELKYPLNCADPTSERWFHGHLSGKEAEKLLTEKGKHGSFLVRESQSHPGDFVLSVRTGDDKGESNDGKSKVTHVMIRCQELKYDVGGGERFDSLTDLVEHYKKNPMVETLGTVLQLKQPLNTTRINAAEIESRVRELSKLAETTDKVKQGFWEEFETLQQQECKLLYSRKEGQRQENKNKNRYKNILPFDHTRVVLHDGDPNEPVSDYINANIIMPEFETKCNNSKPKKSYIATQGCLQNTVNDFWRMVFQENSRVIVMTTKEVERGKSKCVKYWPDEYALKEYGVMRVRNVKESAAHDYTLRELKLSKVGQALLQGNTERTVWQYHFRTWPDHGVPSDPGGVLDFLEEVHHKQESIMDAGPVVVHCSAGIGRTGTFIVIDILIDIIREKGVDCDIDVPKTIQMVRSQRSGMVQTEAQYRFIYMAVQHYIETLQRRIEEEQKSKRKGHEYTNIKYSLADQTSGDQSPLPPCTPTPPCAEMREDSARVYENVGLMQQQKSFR
The assay can be described thus: Phosphatase panel, DiFMUP assay with activating peptide.

Assay [1] concerns the target T3, PP2A Alpha/PP2R1A Complex (Homo sapiens, UniProt P67775).
T3 construct: purchased Recation Biology Inc
The assay can be described thus: Phosphatase panel, DiFMUP fluorescence assay. It is filed as biochemical.

In a further assay the target is T4, PTPN12/PTP-PEST (Homo sapiens, UniProt Q05209).
T4 construct: purchased Recation Biology Inc
T4 sequence (Q05209 1-780): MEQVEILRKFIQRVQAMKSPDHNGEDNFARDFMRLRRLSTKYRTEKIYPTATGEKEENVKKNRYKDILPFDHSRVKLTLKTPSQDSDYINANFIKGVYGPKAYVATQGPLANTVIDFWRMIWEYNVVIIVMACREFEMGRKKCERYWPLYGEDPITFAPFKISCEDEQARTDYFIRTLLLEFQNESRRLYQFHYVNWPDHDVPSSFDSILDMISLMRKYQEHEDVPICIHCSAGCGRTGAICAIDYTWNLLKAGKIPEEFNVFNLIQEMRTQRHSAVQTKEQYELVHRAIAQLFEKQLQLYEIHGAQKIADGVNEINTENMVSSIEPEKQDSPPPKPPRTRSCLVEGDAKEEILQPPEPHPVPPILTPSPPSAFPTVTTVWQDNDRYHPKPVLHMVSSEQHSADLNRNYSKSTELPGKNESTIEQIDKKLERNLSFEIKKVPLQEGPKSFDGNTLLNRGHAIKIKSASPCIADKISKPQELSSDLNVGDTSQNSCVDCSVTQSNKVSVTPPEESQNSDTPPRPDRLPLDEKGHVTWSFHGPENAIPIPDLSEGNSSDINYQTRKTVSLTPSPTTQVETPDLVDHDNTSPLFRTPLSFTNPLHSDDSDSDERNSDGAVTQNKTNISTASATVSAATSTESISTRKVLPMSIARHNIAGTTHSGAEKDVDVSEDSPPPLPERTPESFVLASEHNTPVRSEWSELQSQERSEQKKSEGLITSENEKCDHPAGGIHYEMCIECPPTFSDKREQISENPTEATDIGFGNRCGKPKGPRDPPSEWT
Briefly: Phosphatase panel, DiFMUP fluorescence assay. It is filed as biochemical.

Another assay deals with T5, PTPRC/CD45 (Homo sapiens, UniProt P08575).
T5 construct: purchased Recation Biology Inc
T5 sequence (P08575 26-1306): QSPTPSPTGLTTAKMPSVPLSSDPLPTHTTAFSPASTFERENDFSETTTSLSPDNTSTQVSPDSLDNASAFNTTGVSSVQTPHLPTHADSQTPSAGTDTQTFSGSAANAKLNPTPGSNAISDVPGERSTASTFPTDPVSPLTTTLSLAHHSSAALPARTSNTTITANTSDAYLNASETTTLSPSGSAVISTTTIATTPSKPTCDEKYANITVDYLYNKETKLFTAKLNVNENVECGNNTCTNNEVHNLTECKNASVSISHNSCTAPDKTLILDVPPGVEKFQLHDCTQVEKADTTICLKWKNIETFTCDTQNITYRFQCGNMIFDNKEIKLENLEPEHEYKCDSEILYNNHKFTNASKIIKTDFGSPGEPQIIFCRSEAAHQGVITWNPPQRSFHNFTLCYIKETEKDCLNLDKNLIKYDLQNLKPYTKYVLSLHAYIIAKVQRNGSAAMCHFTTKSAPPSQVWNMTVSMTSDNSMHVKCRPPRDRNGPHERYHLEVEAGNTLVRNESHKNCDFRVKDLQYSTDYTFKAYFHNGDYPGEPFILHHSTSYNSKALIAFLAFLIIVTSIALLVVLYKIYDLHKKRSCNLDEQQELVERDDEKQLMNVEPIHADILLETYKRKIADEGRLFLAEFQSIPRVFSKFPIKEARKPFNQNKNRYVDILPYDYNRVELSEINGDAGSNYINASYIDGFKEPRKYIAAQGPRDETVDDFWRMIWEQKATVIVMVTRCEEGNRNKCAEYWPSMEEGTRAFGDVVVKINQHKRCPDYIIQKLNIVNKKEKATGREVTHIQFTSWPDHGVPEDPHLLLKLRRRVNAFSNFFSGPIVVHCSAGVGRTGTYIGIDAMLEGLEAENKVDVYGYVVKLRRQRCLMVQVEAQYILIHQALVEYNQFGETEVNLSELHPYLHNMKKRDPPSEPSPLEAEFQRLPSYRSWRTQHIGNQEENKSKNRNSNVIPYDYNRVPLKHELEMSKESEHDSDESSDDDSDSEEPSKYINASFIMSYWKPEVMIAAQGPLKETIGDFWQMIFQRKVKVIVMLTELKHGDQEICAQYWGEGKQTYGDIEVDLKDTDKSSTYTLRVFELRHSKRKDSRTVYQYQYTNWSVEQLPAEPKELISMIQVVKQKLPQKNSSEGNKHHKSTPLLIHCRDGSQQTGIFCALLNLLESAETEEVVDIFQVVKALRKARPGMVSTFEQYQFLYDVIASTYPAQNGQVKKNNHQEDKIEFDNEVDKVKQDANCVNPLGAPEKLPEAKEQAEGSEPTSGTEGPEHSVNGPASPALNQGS
The assay can be described thus: Phosphatase panel, DiFMUP fluorescence assay. The class given is biochemical.

The mark [2] stands for this setting: Table 5B, read-out: Compound IC50 (M) PP2A Alpha/PP2R1A Complex.
[3] abbreviates: Table 5C, read-out: Compound IC50 (M) PTPN12/PTP-PEST.
Setting [4] is: Table 5B, read-out: Compound IC50 (M) PTPRC/CD45.
Setting [5] is: Table 19A, read-out: inhibitory activity PP1B.
[6] abbreviates: Table 19A, read-out: inhibitory activity PP2A Alpha/PP2R1A Complex.
Where [7] appears, read: Table 19B, read-out: inhibitory activity PTPN12/PTP-PEST.
Setting [8] is: Table 19A, read-out: inhibitory activity PTPRC/CD45.

Experimental findings from patent US20250228873A1, “C25 R AND S ISOMERS OF AMINOSTEROLS AND METHODS OF MAKING AND USING THE SAME” (Enterin, Inc., priority 2022, published 2025) are described below.

The structures appear in SMILES notation. Where two headings read alike, the source gives them in different places.

T3 sequence (P67775 whole entry): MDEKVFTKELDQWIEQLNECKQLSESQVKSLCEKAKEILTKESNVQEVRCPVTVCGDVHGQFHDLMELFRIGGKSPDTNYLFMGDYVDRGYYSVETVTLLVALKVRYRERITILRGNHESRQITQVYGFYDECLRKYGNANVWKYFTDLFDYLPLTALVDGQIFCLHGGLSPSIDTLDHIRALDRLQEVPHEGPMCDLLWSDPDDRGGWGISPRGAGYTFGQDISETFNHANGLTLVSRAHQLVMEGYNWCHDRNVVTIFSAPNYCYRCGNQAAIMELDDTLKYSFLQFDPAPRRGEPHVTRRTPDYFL
T3 sequence (P30153 whole entry partner): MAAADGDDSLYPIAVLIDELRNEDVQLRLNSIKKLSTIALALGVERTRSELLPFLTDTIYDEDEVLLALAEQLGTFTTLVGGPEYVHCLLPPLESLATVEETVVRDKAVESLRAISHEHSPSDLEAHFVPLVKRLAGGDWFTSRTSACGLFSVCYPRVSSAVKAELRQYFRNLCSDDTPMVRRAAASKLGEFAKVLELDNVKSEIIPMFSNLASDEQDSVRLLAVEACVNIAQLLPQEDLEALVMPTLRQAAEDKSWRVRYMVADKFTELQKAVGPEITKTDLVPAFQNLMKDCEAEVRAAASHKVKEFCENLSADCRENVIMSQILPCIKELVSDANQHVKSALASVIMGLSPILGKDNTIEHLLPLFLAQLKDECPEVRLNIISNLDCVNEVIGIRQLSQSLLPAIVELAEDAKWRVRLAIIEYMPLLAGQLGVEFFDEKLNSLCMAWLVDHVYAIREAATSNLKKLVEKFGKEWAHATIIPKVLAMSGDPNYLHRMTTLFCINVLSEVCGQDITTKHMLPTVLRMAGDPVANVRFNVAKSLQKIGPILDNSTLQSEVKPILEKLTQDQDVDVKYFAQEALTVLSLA
T1 sequence (P62140 whole entry): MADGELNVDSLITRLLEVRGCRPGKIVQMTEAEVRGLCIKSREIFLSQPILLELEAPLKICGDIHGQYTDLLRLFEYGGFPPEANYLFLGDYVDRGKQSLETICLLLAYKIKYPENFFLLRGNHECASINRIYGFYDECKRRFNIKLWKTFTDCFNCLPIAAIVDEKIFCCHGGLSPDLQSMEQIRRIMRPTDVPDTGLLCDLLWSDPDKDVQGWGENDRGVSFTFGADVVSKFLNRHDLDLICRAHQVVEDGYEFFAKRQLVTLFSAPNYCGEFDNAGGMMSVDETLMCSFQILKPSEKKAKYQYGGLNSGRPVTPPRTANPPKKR

Turning to `CC(CCC[C@@H](C)[C@H]1CCC2C3C(CC(O)[C@@]21C)[C@@]1(C)CC[C@H](NCCCNCCCCN)C[C@@H]1C[C@H]3O)C(=O)O` (single isomer, unassigned) [ENT-05], the IC50 is over 0.0001 M on PP1B (Table 18A, read-out: inhibitory activity PP1B); 976 nM on PTPN11/SHP2-FL; 3.8e-06 M in assay [1] (Table 18A, read-out: inhibitory activity PP2A Alpha/PP2R1A Complex); over 0.0001 M at PTPN12/PTP-PEST (Table 18B, read-out: inhibitory activity PTPN12/PTP-PEST); over 0.0001 M at PTPRC/CD45 (Table 18A, read-out: inhibitory activity PTPRC/CD45).

On to `CC(C)[C@@H](CC[C@@H](C)[C@H]1CC[C@H]2[C@@H]3[C@H](O)C[C@H]4C[C@@H](NCCCNCCCCNCCCN)CC[C@]4(C)[C@H]3CC[C@]12C)OS(=O)(=O)O` (single isomer, unassigned) [ENT-02 (MSI-1436), trodusquemine], for which the IC50 against PTPN11/SHP2-FL is 752 nM; in assay [1] (setting [2]), 5.72e-05 M; on PTPN12/PTP-PEST (setting [3]) it was 1.72e-06 M; on PTPRC/CD45 (setting [4]), 4.94e-07 M.

On to `CC(CCC[C@@H](C)[C@H]1CCC2C3C(CC[C@@]21C)[C@@]1(C)CC[C@H](NCCCNCCCCNCCCN)C[C@@H]1C[C@H]3O)C(=O)O` (single isomer, unassigned) [ENT-03], for which the “activity at PP1B” value at PP1B was “inactive”. In addition, the IC50 at PP1B (Table 5B, read-out: Compound IC50 (M) PP1B) was over 0.0001 M; at PP1B (setting [5]), over 0.0001 M; on PTPN11/SHP2-FL it was 1420 nM; in assay [1] (setting [2]) it was over 0.0001 M; in assay [1] (setting [6]), over 0.0001 M; on PTPN12/PTP-PEST (setting [3]), 8.61e-07 M. Besides, the IC50 at PTPN12/PTP-PEST (setting [7]) was 8.61e-07 M; at PTPRC/CD45 (setting [4]) it was 5.71e-07 M; at PTPRC/CD45 (setting [8]) it was 5.17e-07 M. The “activity at PP2 Å alpha” value in assay [1] was “inactive”.

For `CC(CCC[C@@H](C)[C@H]1CCC2C3C(CC[C@@]21C)[C@@]1(C)CC[C@H](NCCCNCCCCN)C[C@@H]1C[C@H]3O)C(=O)O` (single isomer, unassigned) [ENT-06], the IC50 on PP1B (setting [5]) was over 0.0001 M; on PTPN11/SHP2-FL, 3170 nM; in assay [1] (setting [6]), over 0.0001 M; on PTPN12/PTP-PEST (setting [7]), 8.62e-07 M; at PTPRC/CD45 (setting [8]), 1.22e-06 M.
